Data taken from US9464141B2, “Anti-ETBR antibodies and immunoconjugates” (Genentech, Inc., priority 2012, dated 2016).
pEC50: −log10 of the molar value. Starred links: 1 amine or outer side, 2 acyl side, 3 side chain; linkers in the order of their positions; H or OH if unused. Non-standard residues stand in square brackets, D forms with d. Residues, ends and D or L forms follow the SMILES beside them. *: point of attachment. Dolaproine = CO[C@@H]([C@@H]1CCCN1)[C@@H](C)C(=O)O; Hexanoyl(6-maleimido) = O=C1C=CC(=O)N1CCCCCC(=O)*; Dil = CC[C@H](C)[C@H](NC)[C@@H](CC(=O)O)OC; PABC = O=C(OCc1ccc(N[*:1])cc1)[*:2]; X1 = C[C@@H](N*)[C@@H](O)c1ccccc1; Cit = NC(=O)NCCC[C@H](N)C(=O)O; NMeV = CN[C@H](C(=O)O)C(C)C

What was measured:
Assay in all cases: In vitro cell proliferation, CellTiter-Glo, 5 days
Type in all cases: cell-based
Details in all cases: free linker-drug (without antibody)
[1] = test system: Parental UACC-257X2.2 cells
Protocol: (§1) In vitro cell proliferation of the cell lines in the presence of the immunoconjugates was assessed. Cells were plated at 1,500 cells per well in 50 μL of normal growth medium in 96-well clear-bottom plates. Twenty-four hours later, an additional 50 μL of culture medium with serial dilutions of immunoconjugates (ch5E9-vc-MMAE or control anti-gD-vc-MMAE) were added to triplicate wells. Five days later, cell survival was determined using CellTiter-Glo Luminescent Cell Viability Reagent (G7572, Promega Corporation, Madison, Wis.) using an EnVision 2101 Mutilabel Reader (Perkin-Elmer, Waltham, Mass.).

[2] = test system: In vivo-derived resistant UACC-257X2.2 cells
Protocol: For resistance developed in vivo, NCr nude mice (Taconic, Hudson, N.Y.) were inoculated subcutaneously in the dorsal right flank with 5 million UACC-257X2.2 cells in HBSS with Matrigel. UACC-257X2.2 cells are derived from UACC-257 cells (National Cancer Institute) and optimized for growth in vivo as follows. UACC-257 cells were injected subcutaneously in the right flank of female NCr nude mice to induce tumor growth. One tumor was harvested and grown in vitro (referred to as UACC-257X1.2 cell line). The UACC-257X1.2 line was injected again subcutaneously in the right flank of female NCr nude mice to improve the growth of the cell line in vivo. A tumor from the second injection round was collected and again adapted for in vitro growth to generate UACC-257X2.2.
Ten mice inoculated with UACC-257X2.2 cells were dosed with 3 mg/kg hu5E9.v1-MC-vc-PAB-MMAE intravenously on day 0. […]
In vitro cell proliferation of the cell lines in the presence of the immunoconjugates was assessed. […] Five days later, cell survival was determined using CellTiter-Glo Luminescent Cell Viability Reagent (G7572, Promega Corporation, Madison, Wis.) using an EnVision 2101 Mutilabel Reader (Perkin-Elmer, Waltham, Mass.).

[3] = test system: In vitro-derived resistant UACC-257X2.2 cells
Protocol: For resistance developed in vitro, UACC-257X2.2 cells were adapted to increasing concentrations of anti-ETBR-vc-MMAE in culture dishes over the course of two months.
as §1

## CC[C@H](C)[C@@H]([C@@H](CC(=O)N1CCC[C@H]1[C@H](OC)[C@@H](C)C(=O)N[C@H](C)[C@@H](O)c1ccccc1)OC)N(C)C(=O)[C@@H](NC(=O)[C@H](C(C)C)N(C)C(=O)OCc1ccc(NC(=O)[C@H](CCCNC(N)=O)NC(=O)[C@@H](NC(=O)CCCCCN2C(=O)C=CC2=O)C(C)C)cc1)C(C)C [free MC-vc-PAB-MMAE] ({Hexanoyl(6-maleimido)}-V[Cit][PABC][NMeV]V[Dil][Dolaproine]-X1)
[1]
  pEC50: 9.55
[2]
  pEC50: 9.11
[3]
  pEC50: 8.46
